Data: patent US20260315596A1, “HYBRID NANOPARTICLES AS MULTIFUNCTIONAL PLATFORM FOR BRAIN TUMOR THERAPY” (UNIVERSIDADE DE COIMBRA, priority 2022, published 2026)
Like-named read-outs stand apart in the source and are kept apart here.

Experiments:
[1] = test system: U87 cells; test: Resazurin cytotoxicity assay in U87 / glioma cells; type: cell-based, human; settings: for IC50: all glioma cells, 24 hours and 72 hours
Procedure: In vitro toxicity studies were performed as described in Example 4. To assess the potential cytotoxicity of both loaded and unloaded NPs, the resazurin assay was conducted in HBMEC and U87 cells. The sensitivity of GB cells to free CXB and TMZ was assessed following a treatment with a drug solution in the range 7-1700 μM and 5-2500 μM, respectively.
The cytotoxicity effect of AuNRs^c(RGDfK) and HNPs/HNPs^Tf against U87 cells. Regarding cell viability, the U87 cells were cultured in DMEM/F-12 medium, supplemented with 10% (v/v) FBS, 1% (v/v) penicillin-streptomycin solution and sodium bicarbonate. U87 were maintained at 37° C. in a humidified atmosphere containing CO2 (5%). The resazurin assay was used to determine the cytotoxicity of CXB, AuNRs^c(RGDfK) and HNPs. Briefly, 2000 cells per well were seeded in a 96 well plate and incubated for 24 hours or 72 hours after the medium was replaced with increasing concentrations of CXB or AuNRs^c(RGDfK) or HNPs/HNPS^Tf. Subsequently, the medium was removed, and the cell viability determined. For this purpose, 100 μl of 10% (w/v) resazurin solution in DMEM/F 12 was added to the cells and incubated for approximately 2 hours, at 37° C. The enzymatic reduction of resazurin to resorufin was analyzed by UV/Vis spectrophotometry at 570 nm and 600 nm. Cell viability was assessed as described above.

[2] = Safety and tolerability in mice; design: species or system Swiss nude mice; settings: mouse, in vivo
Procedure: The dose used for temozolomide was 30 mg/kg (i.p administration) and 50 mg/kg (oral administration), as the upper threshold tolerated by animals. The treatment started 21 days after U87 cell implantation.
To understand the drug effect: At 21 days post-tumor cell injection, mice were randomly divided into six groups and treated intraperitoneally for two cycles of five consecutive days. […] Similarly, to the safety evaluation test, all animals were closely observed during the immediate post injection period. Mice physical appearance (body weight and coat condition), body function (food intake), presence of loose stools, diarrhea or blood in diarrhea and behavior (handling, aggression, abnormal gait and posture and reluctance to move) were also monitored throughout the study. Pre-determined human endpoints for animal euthanasia were also established, specifically, a weight loss greater than 20% of initial body weight, a temperature drop (<35° C.), and a tumor size higher than 50 mm^3.

[3] = test system: glioblastoma; settings: cited from earlier work
[4] = Serum biomarkers for toxicity evaluation in glioblastoma-bearing mice; type: in vivo, Swiss nude mice; settings: free drug in solution
Procedure: After reaching the endpoint, animals were euthanized. Whole blood samples were collected from mice immediately to heparinized tubes. The supernatant (serum) of blood obtained after centrifugation (2880×g for 10 min at 4° C.) was used to determine the levels of physiological biomarkers such as aspartate aminotransferase (AST), alanine aminotransferase (ALT), alkaline phosphatase (ALP), gamma glutamyl transpeptidase (GGT), creatinine kinase (CK), and urea (U) to investigate the effects of drug, nanoparticles and photothermal treatment.

[5] = test system: orthotopic U87 human GB tumor; test: In vivo antitumor efficacy in orthotopic U87 glioblastoma model; design: species or system human tumor in Swiss nude mice
Procedure: Regarding orthotopic U87 human GB tumor model, before the surgical procedure, fourteen nude mice were weighted, given buprenorphine (0.1 mg/Kg) intraperitoneally and placed on a stereotactic frame. To maintain anesthesia and sedation, the mice were anesthetized for 30 min with 4% isoflurane gas, mixed with medical oxygen at a rate of 1 L/min. Vital signs such as respiratory frequency and body temperature were monitored continuously. After the identification of the injection site, at the Cartesian coordinates (x, y, z)=(2.1, 0.5, −3) in relation to bregma, approximately 36 000 U87 cells were injected in the striatum of the frontal cortex of the right hemisphere of the brain, using a Hamilton syringe. In every mouse, the presence, location and volume of the tumors were assessed by Magnetic Resonance Imaging (MRI) weekly. MRI was performed using a 9.4T Bruker BioSpec 94/20USR system (Bruker, Germany) after anesthetizing mice with isoflurane (1 L/min, induction: 4% isoflurane; maintenance: 2% isoflurane). Vital signs, in particular, respiratory frequency and body temperature, were monitored continuously. For structural analysis, T2-weighted images were acquired in sagittal, coronal and axial planes, using a rapid acquisition with relaxation enhancement sequence (T2 Turbo RARE). Tumor images were manually segmented in the 3D Slicer software for 3D reconstruction, in order to calculate tumor volume.
Similarly, to the safety evaluation test, all animals were closely observed during the immediate post injection period. Mice physical appearance (body weight and coat condition), body function (food intake), presence of loose stools, diarrhea or blood in diarrhea and behavior (handling, aggression, abnormal gait and posture and reluctance to move) were also monitored throughout the study. Pre-determined human endpoints for animal euthanasia were also established, specifically, a weight loss greater than 20% of initial body weight, a temperature drop (<35° C.), and a tumor size higher than 50 mm^3. […]
The tumor growth delayed (TGD), which concerns the evaluation of tumor treatment modalities, was calculated according to
where, Dtreatment and Dcontrol correspond to the average doubling times of the treated and control tumors, respectively.
The tumor growth inhibition (TGI), which measures the tumor size between treated and control groups at specific time points was calculated according to
[formula] • where ΔT (=T−T0) represents the change in tumor size (volume) for the treated animals, while ΔC(=C−C0) represents the change in tumor size (volume) for the control animals. By comparing these values, the degree of tumor growth inhibition can be determined.

[6] = Pharmacokinetics and biodistribution in mice after i.p. administration; type: in vivo, Swiss nude mice; design: AUCinf: concentration or dose not given beside the values
Procedure: Adult male and female Swiss Nu/Nu and Swiss Nu/+ mice, aged between 10-14 weeks and weighting 22-30 g, were purchased from Charles River Laboratories (Lyon, France) and maintained in local animal facilities under controlled conditions (12 hours light/dark cycle, at 20±2° C. and 50±5% of relative humidity), with free access to standard diet and water. All animal experiments were conducted in agreement with the international regulations of the European Union.
A solution containing CXB in PEG 400: NaCl 0.9% (pH=7.4) (2:1, V/V) was used as control. Thereafter, mice were sacrificed by decapitation at predetermined post-dosing time points. Blood samples were collected to heparinised tubes and centrifuged at 2880 g for 10 min at 4° C. Plasma supernatant was collected and frozen at −80° C. until analysis. […] Brain and liver tissues were homogenized with an H2O-acetonitrile (1:1, V/V) solution (4 mL per g of tissue) using a Thomas® Teflon pestle tissue homogenizer and centrifuged at 4 150 g for 15 min at 4° C. In parallel, spleen tissues were homogenized with 1 ml of the same solution using a high-speed stirrer (Ultra-Turrax X1020, Ystral GmbH, Dottingen, Germany) and then, centrifuged at 12 045 g for 5 min at 4° C. All supernatants were collected and stored at −80° C. until analysis using a previously validated HPLC method. […]

[7] = i.p., no irradiation (TMZ 30 mg/kg, CXB 5 mg/kg, nanoparticles 20 mg/kg)
[8] = i.p., no irradiation (TMZ 30 mg/kg, CXB 5 mg/kg, nanoparticles 20 mg/kg), listed as temozolomide
[9] = oral, 50 mg/kg, listed as temozolomide
[10] = celecoxib, i.p. mice, plasma, 20 mg/kg
[11] = mouse, ip, 20 mg/kg, celecoxib, i.p. mice, brain
[12] = mouse, ip, 20 mg/kg, celecoxib, i.p. mice, kidney
[13] = mouse, ip, 20 mg/kg, celecoxib, i.p. mice, liver
[14] = mouse, ip, 20 mg/kg, celecoxib, i.p. mice, plasma
[15] = mouse, ip, 20 mg/kg, celecoxib, i.p. mice, spleen

Cn1nnc2c(C(N)=O)ncn2c1=O [TMZ, temozolomide]
IC50 ([1]; Homo sapiens, U-87 MG, free TMZ): 800 µM | MTD ([2]; ip, i.p. administration, read-out: upper threshold dose tolerated by animals): 30 mg/kg | MTD ([2]; oral administration, read-out: upper threshold dose tolerated by animals): 50 mg/kg | median OS ([3]; combination with radiotherapy vs. 12.1 months radiotherapy alone, P<0.001): 14.6 months | median survival time in patients ([3]; comparative studies of several chemotherapeutic agents, in words): highest median survival time in patients | CK increase over saline group [4]: 1.32 fold | animals that survived and prevented tumor recurrence ([5]; i.p. 30 mg/kg, out of 6 animals, 91 days): 4 | % Tumor Growth Delay [5, 7]: 75 ± 21% | % Tumor Growth Inhibition [5, 7]: 66 ± 33% | Median survival [5, 7]: 91 days | Survivals at 56 days [5, 7]: 6/6 | Survivals at 91 days [5, 7]: 4/6 | % Tumor Growth Delay [5, 8]: 75% | % Tumor Growth Inhibition [5, 8]: 66% | % Tumor Growth Delay ([5]; oral, 50 mg/kg): 54 ± 11% | % Tumor Growth Inhibition ([5]; oral, 50 mg/kg): 42 ± 14% | Median survival ([5]; oral, 50 mg/kg): 70 days | Survivals at 56 days ([5]; oral, 50 mg/kg): 1/6 | Survivals at 91 days ([5]; oral, 50 mg/kg): 1/6 | animals that survived without tumor recurrence ([5]; oral, 50 mg/kg): only one animal survived | mean survival time (MST) ([5]; oral, 50 mg/kg): 70 days | % Tumor Growth Delay [5, 9]: 54% | % Tumor Growth Inhibition [5, 9]: 42%

Cc1ccc(-c2cc(C(F)(F)F)nn2-c2ccc(S(N)(=O)=O)cc2)cc1 [CXB, celecoxib]
effect on cellular proliferation ([1]; free CXB, after 24 hours and 72 hours): able to impair cellular proliferation | IC50 ([1]; free CXB): < 400 µM | MTD ([2]; ip, celecoxib in solution, i.p., read-out: dose above which toxicity was exhibited): > 5 mg/kg | CK increase over saline group [4]: 1.17 fold | AUC0-last ([6]; celecoxib, i.p. mice, brain): 36.7 µg·h/g | AUCextrap ([6]; celecoxib, i.p. mice, brain): 7.08% | AUCinf ([6]; celecoxib, i.p. mice, brain): 39.5 µg·h/g | AUC0-last ([6]; celecoxib, i.p. mice, kidney): 35.3 µg·h/g | AUCextrap ([6]; celecoxib, i.p. mice, kidney): 16.3% | AUCinf ([6]; celecoxib, i.p. mice, kidney): 42.2 µg·h/g | AUC0-last ([6]; celecoxib, i.p. mice, liver): 27.7 µg·h/g | AUCextrap ([6]; celecoxib, i.p. mice, liver): 30.4% | AUCinf ([6]; celecoxib, i.p. mice, liver): 39.8 µg·h/g | AUCextrap ([6]; celecoxib, i.p. mice, plasma): 13.0% | AUC0-last [6, 10]: 28100 ng·h/mL | Cmax [6, 10]: 9100 ng/mL | AUC0-last ([6]; celecoxib, i.p. mice, spleen): 73.2 µg·h/g | AUCextrap ([6]; celecoxib, i.p. mice, spleen): 42.0% | AUCinf ([6]; celecoxib, i.p. mice, spleen): 126.2 µg·h/g | Cmax ([6]; mouse, brain, ip, 20 mg/kg, celecoxib, i.p. mice, brain, read-out: Cmax): 20600 ng/g | AUC(0-t) ([6]; mouse, ip, 20 mg/kg, plasma): 28100 ng·h/mL | MRT [6, 11]: 2 h | Tmax [6, 11]: 1 h | half-life [6, 11]: 1.4 h | MRT [6, 12]: 3.05 h | Tmax [6, 12]: 2 h | half-life [6, 12]: 2 h | MRT [6, 13]: 4.6 h | Tmax [6, 13]: 0.5 h | half-life [6, 13]: 2.8 h | AUC(0-inf) [6, 14]: 32300 ng·h/mL | MRT [6, 14]: 2.9 h | Tmax [6, 14]: 1 h | half-life [6, 14]: 1.9 h | MRT [6, 15]: 6.47 h | Tmax [6, 15]: 1 h | half-life [6, 15]: 4.07 h | Cmax ([6]; mouse, kidney, ip, 20 mg/kg, celecoxib, i.p. mice, kidney, read-out: Cmax): 15600 ng/g | Cmax ([6]; mouse, liver, ip, 20 mg/kg, celecoxib, i.p. mice, liver, read-out: Cmax): 10600 ng/g | Cmax ([6]; mouse, plasma, ip, 20 mg/kg, celecoxib, i.p. mice, plasma, read-out: Cmax): 9090 ng/mL | Cmax ([6]; mouse, spleen, ip, 20 mg/kg, celecoxib, i.p. mice, spleen, read-out: Cmax): 22400 ng/g | mean survival time (MST) ([5]; i.p., no irradiation (CXB 5 mg/kg, nanoparticles 20 mg/kg)): 48 days | % Tumor Growth Delay [5, 7]: 15 ± 5% | % Tumor Growth Inhibition [5, 7]: 13 ± 6% | Median survival [5, 7]: 48 days | Survivals at 56 days [5, 7]: 1/6 | Survivals at 91 days [5, 7]: 0/6 | inhibition of growth of GB cells in vivo ([5]; i.p., in words): the effect was not significant
